Measured values: the NIST ThermoML archive (doi:10.1016/j.jct.2007.02.009)
Where “and” joins values, the source holds several entries; their conditions need not be identical. Equal entries are not always repeated. ± gives the expanded uncertainty stated by the source.

Assay: molar heat capacity at constant pressure
Details: 101.33 kPa

CN(C)C=O [dimethylformamide]
Crystal
Details | molar heat capacity at constant pressure [J/K/mol]
5 K | 0.221 ± 0.025
7.54 K | 0.753 ± 0.026
7.59 K | 0.763 ± 0.026
8.21 K | 0.931 ± 0.028
8.29 K | 0.964 ± 0.028
8.88 K | 1.19 ± 0.03
9.41 K | 1.46 ± 0.04
9.52 K | 1.55 ± 0.04
9.91 K | 1.74 ± 0.04
10 K | 1.79 ± 0.05
10.37 K | 1.995 ± 0.043
10.81 K | 2.263 ± 0.046
11.24 K | 2.533 ± 0.05
11.66 K | 2.776 ± 0.053
12.07 K | 2.996 ± 0.056
12.44 K | 3.216 ± 0.059
12.83 K | 3.574 ± 0.063
13.05 K | 3.741 ± 0.066
13.48 K | 4.017 ± 0.069
14.16 K | 4.518 ± 0.075
14.83 K | 5.048 ± 0.082
15 K | 5.187 ± 0.091
15.49 K | 5.622 ± 0.089
16.15 K | 6.115 ± 0.094
16.81 K | 6.702 ± 0.1
17.45 K | 7.307 ± 0.11
18.1 K | 7.9 ± 0.12
18.75 K | 8.506 ± 0.12
19.2 K | 8.88 ± 0.13
19.64 K | 9.354 ± 0.13
20 K | 9.678 ± 0.13
20.28 K | 9.986 ± 0.14
21.81 K | 11.31 ± 0.15
24.35 K | 13.98 ± 0.18
25 K | 14.64 ± 0.15
26.01 K | 15.67 ± 0.19
28.18 K | 17.9 ± 0.21
29.89 K | 19.58 ± 0.22
30 K | 19.63 ± 0.16
32.35 K | 21.81 ± 0.25
34.82 K | 24.08 ± 0.27
37.3 K | 26.24 ± 0.29
39.15 K | 27.83 ± 0.31
40 K | 28.52 ± 0.19
40.98 K | 29.35 ± 0.18
42.91 K | 30.92 ± 0.19
43.45 K | 31.29 ± 0.19
44.78 K | 32.3 ± 0.2
45.93 K | 33.16 ± 0.2
49.17 K | 35.67 ± 0.21
50 K | 36.34 ± 0.23
51.08 K | 37.1 ± 0.22
53.56 K | 38.97 ± 0.23
56.03 K | 40.81 ± 0.24
58.51 K | 42.63 ± 0.25
60 K | 43.49 ± 0.25
60.98 K | 44.1 ± 0.25
63.46 K | 45.65 ± 0.26
65.93 K | 47.18 ± 0.27
68.4 K | 49.19 ± 0.28
70 K | 49.95 ± 0.28
70.88 K | 50.36 ± 0.28
73.21 K | 52.04 ± 0.29
75.22 K | 52.99 ± 0.3
77.32 K | 54.31 ± 0.3
79.34 K | 55.1 ± 0.31
80 K | 55.45 ± 0.3
82.06 K | 56.51 ± 0.31
84.87 K | 57.9 ± 0.32
87.85 K | 59.4 ± 0.33
90 K | 60.47 ± 0.52
90.82 K | 60.89 ± 0.44
93.8 K | 62.3 ± 0.45
96.76 K | 63.67 ± 0.45
99.73 K | 65.16 ± 0.46
100 K | 65.36 ± 0.53
102.7 K | 66.55 ± 0.46
105.67 K | 67.8 ± 0.47
106.15 K | 68.12 ± 0.47
108.64 K | 69.18 ± 0.47
109.01 K | 69.31 ± 0.47
110 K | 69.68 ± 0.54
111.61 K | 70.34 ± 0.48
111.97 K | 70.65 ± 0.48
114.57 K | 71.6 ± 0.48
114.94 K | 71.75 ± 0.48
117.89 K | 73.04 ± 0.48
120 K | 73.76 ± 0.55
120.75 K | 74.11 ± 0.49
123.71 K | 75.3 ± 0.49
126.68 K | 76.26 ± 0.5
129.64 K | 77.49 ± 0.5
130 K | 77.82 ± 0.56
132.61 K | 78.6 ± 0.5
138.24 K | 80.9 ± 0.51
140 K | 81.78 ± 0.56
146.91 K | 84.72 ± 0.53
149.76 K | 85.72 ± 0.53
150 K | 85.56 ± 0.57
152.73 K | 86.72 ± 0.53
155.69 K | 87.47 ± 0.54
158.66 K | 88.47 ± 0.54
160 K | 89.05 ± 0.58
161.62 K | 89.38 ± 0.54
164.59 K | 90.46 ± 0.55
167.56 K | 91.54 ± 0.55
170 K | 92.62 ± 0.59
170.53 K | 92.79 ± 0.56
173.49 K | 94.53 ± 0.56
178.4 K | 96.61 ± 0.57
180 K | 96.36 ± 0.59
184.4 K | 99.44 ± 0.6
184.65 K | 101.2 ± 0.6
190 K | 100.5 ± 0.6
191.1 K | 105.5 ± 0.6
191.8 K | 105 ± 0.6
198.9 K | 124.1 ± 0.7
200 K | 104.6 ± 0.6
200.5 K | 130.6 ± 0.7
201.1 K | 139.5 ± 0.8
201.51 K | 150.5 ± 0.9
210 K | 107.7 ± 0.6
212.86 K | 108.1 ± 0.6

Liquid, Vacuum adiabatic calorimetry
Details | molar heat capacity at constant pressure
212.86 K | 141.4 ± 0.3 J/K/mol
213 K | 142.4 ± 0.6 J/K/mol
215.3 K | 141.5 ± 0.6 J/K/mol
216.03 K | 141.8 ± 0.6 J/K/mol
217.78 K | 141.7 ± 0.6 J/K/mol
217.98 K | 142 ± 0.6 J/K/mol
220 K | 141.9 ± 0.3 J/K/mol
220.95 K | 141.8 ± 0.6 J/K/mol
222.56 K | 142 ± 0.6 J/K/mol
223.91 K | 142.2 ± 0.6 J/K/mol
225.22 K | 142.2 ± 0.6 J/K/mol
226.86 K | 142.2 ± 0.6 J/K/mol
228.18 K | 142.4 ± 0.6 J/K/mol
229.81 K | 142.5 ± 0.6 J/K/mol
230 K | 142.5 ± 0.3 J/K/mol
230.54 K | 142.5 ± 0.6 J/K/mol
231.13 K | 142.7 ± 0.6 J/K/mol
232.77 K | 142.5 ± 0.6 J/K/mol
233.19 K | 142.9 ± 0.6 J/K/mol
235.55 K | 142.5 ± 0.6 J/K/mol
235.72 K | 142.8 ± 0.6 J/K/mol
236.14 K | 142.7 ± 0.6 J/K/mol
238.66 K | 143 ± 0.6 J/K/mol
238.73 K | 143.2 ± 0.6 J/K/mol
239.07 K | 143 ± 0.6 J/K/mol
240 K | 143 ± 0.3 J/K/mol
241.6 K | 143.1 ± 0.6 J/K/mol
242.25 K | 143.5 ± 0.6 J/K/mol
244.54 K | 143.3 ± 0.6 J/K/mol
245.77 K | 143.3 ± 0.6 J/K/mol
247.48 K | 143.4 ± 0.6 J/K/mol
249.28 K | 143.4 ± 0.6 J/K/mol
250 K | 143.6 ± 0.3 J/K/mol
250.41 K | 143.5 ± 0.6 J/K/mol
252.78 K | 143.7 ± 0.6 J/K/mol
253.34 K | 143.5 ± 0.6 J/K/mol
256.26 K | 143.9 ± 0.6 J/K/mol
256.28 K | 144.1 ± 0.6 J/K/mol
259.17 K | 144 ± 0.6 J/K/mol
260 K | 144.2 ± 0.3 J/K/mol
261.17 K | 144.3 ± 0.6 J/K/mol
262.1 K | 144.3 ± 0.6 J/K/mol
262.79 K | 144.5 ± 0.6 J/K/mol
263.79 K | 144.4 ± 0.6 J/K/mol
265.01 K | 144.6 ± 0.6 J/K/mol
266.68 K | 144.8 ± 0.6 J/K/mol
267.92 K | 144.6 ± 0.6 J/K/mol
269.56 K | 145 ± 0.6 J/K/mol
270 K | 144.9 ± 0.3 J/K/mol
270.82 K | 144.8 ± 0.6 J/K/mol
272.44 K | 145.3 ± 0.6 J/K/mol
273.71 K | 145 ± 0.6 J/K/mol
275.31 K | 145.4 ± 0.6 J/K/mol
276.6 K | 145.4 ± 0.6 J/K/mol
278.16 K | 145.6 ± 0.6 J/K/mol
279.47 K | 145.6 ± 0.6 J/K/mol
280 K | 145.9 ± 0.4 J/K/mol
281.01 K | 146.1 ± 0.6 J/K/mol
283.85 K | 146.6 ± 0.6 J/K/mol
286.68 K | 146.7 ± 0.6 J/K/mol
289.51 K | 147 ± 0.6 J/K/mol
290 K | 147.1 ± 0.4 J/K/mol
292.32 K | 147.4 ± 0.6 J/K/mol
298.15 K | 148.2 ± 0.6 J/K/mol and 148.2 ± 0.4 J/K/mol
300 K | 148.5 ± 0.4 J/K/mol
301.5 K | 148.7 ± 0.6 J/K/mol
305 K | 149 ± 0.4 J/K/mol
